From patent US20020123514A1, “Treatment of diabetes with thiazolidinedione and alpha-glucosidase inhibitor” (SmithKline Beecham plc, priority 1997, published 2002)

Test: Pharmacokinetic interaction study: single oral dose of Compound (I) alone and coadministered with acarbose
Assay type: in vivo, healthy volunteers
Procedure: This study investigated whether administration of acarbose (A) alters the PK of co-administered Compound (I). Sixteen healthy volunteers (24-59 yo) received a single oral dose of Compound (I) (8 mg) on Day 1, followed by 7 days of repeat dosing with A (100 mg tid with meals). On Day 8, a single oral dose of Compound (I) was coadministered with the morning dose of A. PK profiles following Compound (I) dosing on Days 1 and 8 were compared. […] PK data and point estimates [95% confidence intervals] for Compound (I)+A: Compound (I) alone were analyzed.

[1] = human, in vivo, Compound (I) alone, single oral dose 8 mg, Day 1, healthy volunteers

## C[C@H]1O[C@H](O[C@H]2[C@H](O)[C@@H](O)[C@@H](O[C@H]3[C@H](O)[C@@H](O)C(O)O[C@@H]3CO)O[C@@H]2CO)[C@H](O)[C@@H](O)[C@@H]1N[C@H]1C=C(CO)[C@@H](O)[C@H](O)[C@H]1O (some centres unmarked) [acarbose, reference compound]
Acarbose 100 mg tid coadministered, changes small, not likely clinically relevant
  effect on Compound (I) clearance: slightly increase

## CN(CCOc1ccc(CC2SC(=O)NC2=O)cc1)c1ccccn1 (centres unmarked) [Compound (I), 5-[4-[2-(N-methyl-N-(2-pyridyl)amino)ethoxy]benzyl]thiazolidine-2,4-dione]
[1]
  AUC(0-inf): 2790 ng·h/mL
  Cmax: 428 ng/mL
human, in vivo, Compound (I) alone, single oral dose 8 mg, Day 1, healthy volunteers, read-out: T½ (converted)
  half-life: 4.93 h
human, in vivo, Compound (I) alone, single oral dose 8 mg, Day 1, median (range)
  Tmax: 1.48 h
